Holding throughout (assay type): in vivo
Test [1] relates to Phaedon cochleariae. In words: Phaedon cochleariae larvae test (treated cabbage leaves). The settings on record: applied individually; for pest or weed control at 500 g/ha / pest or weed control at 100 g/ha / pest or weed control at 200 g/ha: Phaedon cochleariae, 144 h, after 6 d, read-out: Kill in % after 6d.
Test [2] relates to Tetranychus urticae. The test can be described thus: Tetranychus test (OP-resistant/spray treatment), bean leaf discs. As for the experimental part:
(§1) To produce a suitable preparation of active compound, 1 part by weight of active compound is mixed with the stated amounts of solvent and emulsifier, and the concentrate is diluted with emulsifier-containing water to the desired concentration.
Discs of bean leaves (Phaseolus vulgaris) which are infested by all stages of the greenhouse red spidermite (Tetranychus urticae) are sprayed with an active compound preparation of the desired concentration.
After the desired period of time, the effect in % is determined. 100% means that all spider mites have been killed; 0% means that none of the spider mites have been killed.

Test [3] relates to Myzus persicae. The test can be described thus: Myzus persicae test (spray treatment of infested cabbage leaves). To be noted: applied individually. As for the experimental part: as §1
Cabbage leaves (Brassica oleracea) which are heavily infested by the green peach aphid (Myzus persicae) are treated by spraying with the active compound preparation of the desired concentration.
After the desired period of time, the kill in % is determined. 100% means that all of the aphids have been destroyed; 0% means that none of the aphids have been destroyed. The kill rates determined are entered into Colby's formula.

Test [4] relates to Spodoptera frugiperda. In words: Spodoptera frugiperda larvae test (sprayed cabbage leaves). The settings on record: applied individually. The protocol: as §1
Cabbage leaves (Brassica okracea) are treated by being sprayed with the preparation of active compound of the desired concentration and are populated with larvae of the armyworm (Spodoptera frugiperda) while the leaves are still moist.
After the desired period of time, the kill in % is determined. 100% means that all caterpillars have been killed; 0% means that none of the caterpillars have been killed. The kill rates determined are entered into Colby's formula.

The mark [5] stands for this setting: Tetranychus urticae, foliar, 144 h, read-out: Kill in % after 6d.
Where [6] appears, read: Tetranychus urticae, foliar, 144 h, 500 g/ha, after 6 d, applied individually, read-out: Kill in % after 6d.

The structures appear in SMILES notation. Where two headings read alike, the source gives them in different places.

Regarding `CC(C)C1CCC(Cc2ccc(Cl)cc2)C1(O)Cn1cncn1` (centres unmarked) [ipconazole], the pest or weed control at 500 g/ha in test [1] (500 g/ha) came out at 0%.

As for `COCC(=O)N(c1c(C)cccc1C)C(C)C(=O)OC` (centres unmarked) [metalaxyl], in test [2] (500 g/ha, applied individually), the “Kill in % after 1d” value amounted to 0%. Moreover, the pest or weed control at 500 g/ha in test [2] (setting [5]) stood at 0%.

On to `Cc1ccc(N(SC(F)(Cl)Cl)S(=O)(=O)N(C)C)cc1` [tolyfluanid, tolylfluanid], for which the pest or weed control at 500 g/ha in test [1] (500 g/ha) came out at 0%.

Take `Cc1cc(F)c(-n2nc(C(F)(F)F)nc2N)cc1[S+]([O-])CC(F)(F)F` (centres unmarked) [compound (I-4)]: the pest or weed control at 4 g/ha in test [2] (Tetranychus urticae, foliar, 144 h, 4 g/ha, after 6 d, applied individually, read-out: Kill in % after 6d) was 70%. In addition, the pest or weed control at 20 g/ha in test [2] (Tetranychus urticae, foliar, 144 h, 20 g/ha, after 6 d, applied individually, read-out: Kill in % after 6d) came out at 80%. The pest or weed control at 100 g/ha in test [1] was found to be 0%. Moreover, the “Kill in % after 1d” value in test [3] (100 g/ha) is reported as 0%. Besides, the “Kill in % after 6d” value in test [4] (100 g/ha) was 0%.

Consider `CO/N=C(/C1=NOCCO1)c1ccccc1Oc1ncnc(Oc2ccccc2Cl)c1F` [fluoxastrobin], for which the pest or weed control at 500 g/ha in test [2] (setting [5]) amounted to 0%; in test [1] (500 g/ha) it was 33%.

As to `CO/N=C(/C(=O)OC)c1ccccc1CO/N=C(\C)c1cccc(C(F)(F)F)c1` [trifloxystrobin], the pest or weed control at 500 g/ha in test [2] (setting [5]) and in test [1] (500 g/ha) was 0% throughout. Besides, the pest or weed control at 200 g/ha in test [1] was determined as 17%. Moreover, in test [3] (500 g/ha), the “Kill in % after 1d” value came to 70%.

With `CCCN(CC)CC1COC2(CCC(C(C)(C)C)CC2)O1` (centres unmarked) [spiroxamine], the pest or weed control at 200 g/ha in test [2] (setting [5]) was 0%.

With `O=C(NCc1ncc(C(F)(F)F)cc1Cl)c1c(Cl)cccc1Cl` [fluopicolide, fluopicolid], in test [2] (setting [6]), the pest or weed control at 500 g/ha turned out to be 0%. In test [1] (500 g/ha), the “Kill in % after 6d” value came out at 0% and the pest or weed control at 500 g/ha was 0%.

In the case of `CC(C)(C)C(O)C(Oc1ccc(-c2ccccc2)cc1)n1cncn1` (centres unmarked) [bitertanol], in test [1] (500 g/ha), the pest or weed control at 500 g/ha came to 0%.

For the molecule `CSC1=N[C@@](C)(c2ccccc2)C(=O)N1Nc1ccccc1` [fenamidone], the pest or weed control at 500 g/ha in test [2] (setting [5]) and in test [1] (500 g/ha) was 0% throughout. The “Kill in % after 6d” value in test [4] (500 g/ha) is 0%.

As for `OC(Cc1ccccc1Cl)(Cn1ncnc1S)C1(Cl)CC1` (centres unmarked) [prothioconazole], the pest or weed control at 200 g/ha in test [2] (setting [5]) was 0%. The pest or weed control at 500 g/ha in test [1] (500 g/ha) was 0%. Also, in test [4] (500 g/ha), the “Kill in % after 6d” value is given as 0%.

`Cn1cc(C(=O)Nc2ccc(F)cc2-c2ccc(Cl)c(Cl)c2)c(C(F)F)n1` [bixafen, N-(3′,4′-dichloro-5-fluoro[1,1′-biphenyl]-2-yl)-3-(difluoromethyl)-1-methyl-1H-pyrazole-4-carboxamide]: the “Kill in % after 1d” value in test [2] (200 g/ha, applied individually) was 0%. Moreover, the pest or weed control at 500 g/ha in test [1] (500 g/ha) worked out at 0%.

In the case of `CCCOC(=O)NCCCN(C)C` [propamocarb], the “Kill in % after 1d” value in test [2] (500 g/ha, applied individually) worked out at 0%. Further, the pest or weed control at 500 g/ha in test [2] (setting [6]) is 0%. In addition, in test [1], the pest or weed control at 200 g/ha was 17%.

`CC(C)(C)C(O)(CCc1ccc(Cl)cc1)Cn1cncn1` (centres unmarked) [tebuconazole]: in test [2] (setting [5]), the pest or weed control at 200 g/ha was found to be 0%. In addition, the pest or weed control at 500 g/ha in test [1] (500 g/ha) came out at 0%. Further, the “Kill in % after 6d” value in test [4] (500 g/ha) is given as 0%.

Turning to `COC(=O)Nc1nc2ccccc2[nH]1` [carbendazim], the “Kill in % after 6d” value in test [3] (500 g/ha) is recorded as 20%.

`N#Cc1ccccc1NC(=O)c1snc(Cl)c1Cl` [isotianil]: in test [1] (500 g/ha), the pest or weed control at 500 g/ha was 0%.

For the molecule `O=C(Nc1ccccc1)N(Cc1ccc(Cl)cc1)C1CCCC1` [pencycuron], the pest or weed control at 500 g/ha in test [1] (500 g/ha) was 0%.

Regarding `Cc1cc(C)c([S+]([O-])CC(F)(F)F)cc1-n1cnc(C(F)(F)F)n1` (centres unmarked) [(I-1)], the “Kill in % after 1d” value in test [2] (0.16 g/ha, applied individually) was 0%. For the same molecule, the pest or weed control at 0.16 g/ha in test [2] (Tetranychus urticae, foliar, 144 h, 0.16 g/ha, after 6 d, applied individually, read-out: Kill in % after 6d) was determined as 0%. In addition, in test [2] (Tetranychus urticae, foliar, 144 h, 0.8 g/ha, after 6 d, applied individually, read-out: Kill in % after 6d), the pest or weed control at 0.8 g/ha was found to be 60%. The pest or weed control at 100 g/ha in test [1] stood at 0%. In test [3] (20 g/ha), the “Kill in % after 6d” value was found to be 0%.

For the molecule `CO/C=C(/C(=O)OC)c1ccccc1Oc1cc(Oc2ccccc2C#N)ncn1` [azoxystrobin], in test [1] (500 g/ha), the pest or weed control at 500 g/ha was 17%.

Turning to `Cc1nn(C)c(F)c1C(=O)Nc1ccccc1C(C)CC(C)C` (centres unmarked) [(6-18), N-[2-(1,3-dimethylbutyl)phenyl]-5-fluoro-1,3-dimethyl-1H-pyrazole-4-carboxamide], the “Kill in % after 1d” value in test [2] (500 g/ha, applied individually) came to 0%. Further, the pest or weed control at 500 g/ha in test [2] (setting [6]) and in test [1] (500 g/ha) was 0% throughout.

In the case of `CC(C)(C)C(O)C(Oc1ccc(Cl)cc1)n1cncn1` (centres unmarked) [triadimenol], the pest or weed control at 200 g/ha in test [2] (setting [5]) worked out at 0%. The pest or weed control at 500 g/ha in test [1] (500 g/ha) worked out at 0%. Besides, the “Kill in % after 6d” value in test [4] (500 g/ha) is given as 0%.

Turning to `CNC(=O)/C(=N/OC)c1ccccc1Oc1ccccc1` [metominostrobin], in test [2] (setting [5]), the pest or weed control at 500 g/ha came out at 0%.

Take `O=c1c2cc(F)ccc2nc(-n2cncn2)n1-c1ccc(Cl)cc1Cl` [fluquincoazole, fluquinconazole]: the pest or weed control at 500 g/ha in test [2] (setting [5]) came to 0%; in test [1] (500 g/ha), 17%.

Take `O=C(NCCc1ncc(C(F)(F)F)cc1Cl)c1ccccc1C(F)(F)F` [fluopyram, N-[2-[3-chloro-5-(trifluoromethyl)-2-pyridinyl]ethyl]-2-(trifluoromethyl)benzamide]: the pest or weed control at 500 g/ha in test [2] (setting [5]) and in test [1] (500 g/ha) was 0% in each case. For the same molecule, the “Kill in % after 6d” value in test [4] (500 g/ha) is listed as 0%.

Consider `N#Cc1c[nH]cc1-c1cccc2c1OC(F)(F)O2` [fludioxonil], for which the pest or weed control at 200 g/ha in test [2] (setting [5]) is 0%; in test [1] it was 33%.

Take `CCC1(C(=O)NC(C)c2ccc(Cl)cc2)C(C)C1(Cl)Cl` (centres unmarked) [carpropamid]: in test [1] (500 g/ha), the pest or weed control at 500 g/ha was 0%. For the same molecule, the “Kill in % after 6d” value in test [4] (500 g/ha) was 0%.
